According to the supplement of paper PMC6045584:
± gives the standard deviation of the averaged measurements.

What was measured:
[1] = compound: CCn1c(C(=O)N(C2CC2)C2CC2)cc2c3c(ncn3C)c(Nc3cc(C)n(C)n3)nc21; test: surviving fraction relative to DMSO-only wells; higher = less growth inhibition; conditions: exposure time: 5 days
How it was run: (§1)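 Viability was determined by CellTiter-Glo luminescence, expressed as surviving fraction normalised to the median of DMSO-only wells. The cells were log-phase tumour cell lines seeded at 250–500 per well in 384-well plates and, after 24 hours, exposed continuously for five days to inhibitors at 0.5, 1, 5, 10, 50, 100, 500 and 1000 nM. Three screens per line were run, keeping only lines with replicate Pearson r >0.7 and median Z' >0.3.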

SOTRASTAURIN/AEB071 = compound: CN1CCN(c2nc(C3=C(c4c[nH]c5ccccc45)C(=O)NC3=O)c3ccccc3n2)CC1 [SOTRASTAURIN/AEB071]; test: as above; conditions: exposure time: 5 days
How it was run: as §1

Row | Test System | surviving fraction ([1]; 0.5 nM) | surviving fraction ([1]; 1 nM) | surviving fraction ([1]; 5 nM) | surviving fraction ([1]; 10 nM) | surviving fraction ([1]; 50 nM) | surviving fraction ([1]; 100 nM) | surviving fraction ([1]; 500 nM) | surviving fraction ([1]; 1000 nM) | surviving fraction (SOTRASTAURIN/AEB071; 0.5 nM) | surviving fraction (SOTRASTAURIN/AEB071; 1 nM) | surviving fraction (SOTRASTAURIN/AEB071; 5 nM) | surviving fraction (SOTRASTAURIN/AEB071; 10 nM) | surviving fraction (SOTRASTAURIN/AEB071; 50 nM) | surviving fraction (SOTRASTAURIN/AEB071; 100 nM) | surviving fraction (SOTRASTAURIN/AEB071; 500 nM) | surviving fraction (SOTRASTAURIN/AEB071; 1000 nM)
1 | 22RV1 PROSTATE | 0.972 ± 0.044 | 1.03 ± 0.037 | 0.975 ± 0.019 | 1.02 ± 0.017 | 1.07 ± 0.031 | 1.03 ± 0.079 | 1.07 ± 0.018 | 1.08 ± 0.064 | 1.08 ± 0.014 | 1.11 ± 0.026 | 0.985 ± 0.013 | 1.05 ± 0.054 | 1.24 ± 0.26 | 1.2 ± 0.17 | 1.06 ± 0.099 | 1.03 ± 0.051
2 | 93VU HEADNECK | 0.879 ± 0.12 | 0.834 ± 0.051 | 1.05 ± 0.031 | 0.976 ± 0.029 | 1.06 ± 0.042 | 1.04 ± 0.1 | 0.832 ± 0.027 | 0.775 ± 0.11 | 1.03 ± 0.011 | 1.01 ± 0.036 | 1.07 ± 0.1 | 0.9817 ± 0.005 | 0.919 ± 0.067 | 0.887 ± 0.039 | 0.757 ± 0.055 | 0.789 ± 0.048
3 | 143B BONE | 1 ± 0.0057 | 1 ± 0.03 | 1.02 ± 0.012 | 0.9945 ± 0.005 | 1.04 ± 0.025 | 1.02 ± 0.02 | 1.01 ± 0.026 | 1.023 ± 0.0099 | 1.067 ± 0.0071 | 1.08 ± 0.037 | 1.14 ± 0.14 | 1.04 ± 0.014 | 1.09 ± 0.037 | 1.14 ± 0.11 | 1.12 ± 0.096 | 1.09 ± 0.063
4 | A549 LUNG | 0.956 ± 0.034 | 0.941 ± 0.018 | 0.949 ± 0.02 | 0.963 ± 0.022 | 0.958 ± 0.057 | 1.024 ± 0.0095 | 1 ± 0.084 | 1.02 ± 0.03 | 1.059 ± 0.0099 | 1.11 ± 0.015 | 1.076 ± 0.0085 | 1.06 ± 0.017 | 1.07 ± 0.021 | 1.102 ± 0.0085 | 1.07 ± 0.03 | 1.06 ± 0.048
5 | ASKA SYNOVIAL | 1.06 ± 0.071 | 0.998 ± 0.1 | 1.06 ± 0.064 | 1.05 ± 0.062 | 1.15 ± 0.092 | 1.11 ± 0.063 | 1.07 ± 0.057 | 0.953 ± 0.051 | 1.14 ± 0.086 | 1.1 ± 0.074 | 1.18 ± 0.057 | 1.2 ± 0.097 | 1.03 ± 0.073 | 1.02 ± 0.028 | 0.998 ± 0.068 | 0.995 ± 0.077
6 | BT20 BREAST | 1.07 ± 0.032 | 0.999 ± 0.25 | 1.09 ± 0.24 | 1 ± 0.2 | 1.1 ± 0.26 | 1.07 ± 0.16 | 1.16 ± 0.22 | 1.24 ± 0.18 | 1.12 ± 0.043 | 1.14 ± 0.11 | 1.19 ± 0.052 | 1.15 ± 0.024 | 0.836 ± 0.013 | 0.893 ± 0.15 | 0.912 ± 0.029 | 0.972 ± 0.055
7 | BT549 BREAST | 1.14 ± 0.22 | 1 ± 0.046 | 1.06 ± 0.11 | 1.18 ± 0.12 | 0.934 ± 0.19 | 0.965 ± 0.2 | 1.04 ± 0.1 | 0.887 ± 0.13 | 0.889 ± 0.093 | 1.06 ± 0.068 | 1.01 ± 0.19 | 1.16 ± 0.2 | 0.904 ± 0.095 | 0.897 ± 0.035 | 0.919 ± 0.12 | 1.07 ± 0.16
8 | C33A CERVIX | 0.809 ± 0.035 | 0.801 ± 0.11 | 0.926 ± 0.082 | 1.03 ± 0.19 | 0.895 ± 0.049 | 1.08 ± 0.15 | 0.768 ± 0.025 | 0.657 ± 0.1 | 0.938 ± 0.17 | 1.05 ± 0.059 | 1.14 ± 0.045 | 1.05 ± 0.12 | 1.19 ± 0.071 | 1.16 ± 0.13 | 1.14 ± 0.077 | 1.2 ± 0.086
9 | CADOES1 SOFT TISSUE | 0.958 ± 0.066 | 0.961 ± 0.061 | 0.905 ± 0.13 | 0.92 ± 0.068 | 0.889 ± 0.16 | 0.94 ± 0.026 | 0.913 ± 0.033 | 0.988 ± 0.091 | 1.04 ± 0.11 | 0.908 ± 0.11 | 1 ± 0.18 | 0.926 ± 0.1 | 0.923 ± 0.019 | 0.973 ± 0.14 | 1.04 ± 0.055 | 0.962 ± 0.18
10 | CAL51 BREAST | 0.972 ± 0.049 | 0.985 ± 0.034 | 0.98 ± 0.036 | 0.976 ± 0.043 | 1.02 ± 0.043 | 1.06 ± 0.031 | 1.02 ± 0.034 | 0.99 ± 0.015 | 0.993 ± 0.025 | 0.969 ± 0.071 | 0.933 ± 0.031 | 0.962 ± 0.05 | 0.968 ± 0.077 | 1.04 ± 0.04 | 0.938 ± 0.077 | 0.824 ± 0.05
11 | CAL72 BONE | 1.1 ± 0.015 | 1.11 ± 0.035 | 1.06 ± 0.019 | 1.035 ± 0.005 | 1.12 ± 0.022 | 1.16 ± 0.059 | 1.13 ± 0.028 | 1.1 ± 0.035 | 1.1 ± 0.021 | 1.09 ± 0.029 | 1.05 ± 0.029 | 1.08 ± 0.014 | 1.05 ± 0.04 | 1.08 ± 0.072 | 1.06 ± 0.044 | 1.1 ± 0.015
12 | CAL120 BREAST | 0.876 ± 0.038 | 0.911 ± 0.018 | 0.937 ± 0.036 | 0.924 ± 0.056 | 0.962 ± 0.0098 | 0.94 ± 0.036 | 0.941 ± 0.026 | 0.897 ± 0.012 | 1.03 ± 0.042 | 1.01 ± 0.054 | 1.01 ± 0.03 | 1.02 ± 0.035 | 0.985 ± 0.051 | 0.955 ± 0.035 | 0.976 ± 0.046 | 0.981 ± 0.009
13 | CASKI CERVIX | 0.85 ± 0.039 | 0.932 ± 0.015 | 0.972 ± 0.055 | 0.946 ± 0.073 | 0.994 ± 0.049 | 1 ± 0.062 | 0.985 ± 0.029 | 1.04 ± 0.06 | 0.955 ± 0.051 | 0.962 ± 0.08 | 0.974 ± 0.035 | 0.906 ± 0.026 | 0.989 ± 0.12 | 0.898 ± 0.047 | 0.975 ± 0.021 | 0.863 ± 0.036
14 | CHLA90 AUTONOMIC GANGLIA | 0.986 ± 0.026 | 0.944 ± 0.037 | 0.905 ± 0.032 | 0.918 ± 0.095 | 0.961 ± 0.011 | 0.975 ± 0.003 | 0.945 ± 0.065 | 0.968 ± 0.026 | 0.975 ± 0.024 | 0.962 ± 0.046 | 1.02 ± 0.074 | 0.943 ± 0.081 | 1.05 ± 0.12 | 1 ± 0.083 | 1.06 ± 0.097 | 0.978 ± 0.17
15 | CME SYNOVIAL | 1.27 ± 0.18 | 1.22 ± 0.11 | 1.29 ± 0.15 | 1.22 ± 0.064 | 1.294 ± 0.004 | 1.22 ± 0.072 | 1.21 ± 0.11 | 1.09 ± 0.06 | 1.28 ± 0.26 | 1.3 ± 0.18 | 1.31 ± 0.13 | 1.38 ± 0.22 | 0.978 ± 0.13 | 1.21 ± 0.2 | 1.14 ± 0.059 | 1.12 ± 0.059
16 | COLO320DM LARGE INTESTINE | 1.03 ± 0.053 | 1.11 ± 0.0081 | 1.15 ± 0.1 | 1.08 ± 0.11 | 1.17 ± 0.14 | 1.18 ± 0.095 | 1.14 ± 0.063 | 1.27 ± 0.22 | 1.09 ± 0.06 | 1.05 ± 0.14 | 1 ± 0.046 | 1.08 ± 0.12 | 1.01 ± 0.084 | 1.07 ± 0.047 | 0.994 ± 0.056 | 1.05 ± 0.059
17 | DU4475 BREAST | 0.875 ± 0.26 | 0.938 ± 0.15 | 0.819 ± 0.24 | 0.887 ± 0.2 | 0.713 ± 0.23 | 0.675 ± 0.29 | 0.91 ± 0.46 | 1.05 ± 0.35 | 1.02 ± 0.16 | 1.2 ± 0.081 | 1.05 ± 0.038 | 0.986 ± 0.027 | 0.989 ± 0.068 | 1.08 ± 0.068 | 0.901 ± 0.24 | 0.844 ± 0.038
